What was measured:
[1] = target: T1, IRAK-4 (Homo sapiens, UniProt Q9NWZ3); assay: Test for the inhibition of IRAK4 (flashplate, 33P-ATP); assay type: biochemical; conditions: enzyme
T1 construct: His6 (N); Dr.Jaekel
T1 sequence (Q9NWZ3 1-460): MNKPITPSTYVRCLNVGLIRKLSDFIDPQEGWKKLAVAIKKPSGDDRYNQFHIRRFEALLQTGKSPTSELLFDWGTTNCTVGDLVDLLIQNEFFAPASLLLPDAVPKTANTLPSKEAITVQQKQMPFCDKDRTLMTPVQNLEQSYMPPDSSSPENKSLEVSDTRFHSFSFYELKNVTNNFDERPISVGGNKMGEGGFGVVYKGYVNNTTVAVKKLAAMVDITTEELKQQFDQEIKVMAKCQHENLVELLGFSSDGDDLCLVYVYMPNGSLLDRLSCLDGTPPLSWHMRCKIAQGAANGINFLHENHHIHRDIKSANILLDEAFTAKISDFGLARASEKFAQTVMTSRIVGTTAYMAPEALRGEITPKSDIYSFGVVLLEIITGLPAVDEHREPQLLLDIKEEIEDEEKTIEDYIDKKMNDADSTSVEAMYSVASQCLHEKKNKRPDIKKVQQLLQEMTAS
Description: (§1) The experimental batches are carried out in a flashplate system with 384 wells/microtitre plate. In each case, the IRAK4 sample His6-IRAK4 (7.3 nM), the biotinylated substrate peptide STK substrate 1-biotin (Cisbio Bioassays, France) (300 nM), 10 μM ATP (with 0.25 μCi of ^33P-ATP/well) and the test substance in 50 μl of conventional experimental solution per well are incubated at 22° C. for 180 min. The test substances are employed in corresponding concentrations (if desired in a dilution series). The control is carried out without test substance. The reaction is stopped using standard methods and washed. The activity of the kinase is measured via the incorporated radioactivity in top count. In order to determine the non-specific kinase reaction (blank value), the experimental batches are carried out in the presence of 1 μM staurosporin. The radioactivity (decompositions per minute) of the blank value (no use of test substance in the presence of 1 μM staurosporin) is subtracted from all other radioactivity values. The controls (kinase activity without test substance) are set equal to 100 percent and all other radioactivity values (after subtracting the blank value) are expressed set in relation thereto (for example in % of the control). IC50 values (50% inhibition) are determined with the aid of statistics programs, such as, for example, RS1.

[2] = target: T1, IRAK-4; assay: IC50 IRAK-4 (cell); assay type: cell-based
[3] = target: T2, IRAK-1 (Homo sapiens, UniProt P51617); assay: Test for the inhibition of IRAK1 (autophosphorylation, flashplate); assay type: biochemical; conditions: enzyme
T2 construct: His6 (N); Dr.Jaekel Pool B, 232Y08C1.IRK
Description: as §1, with “case, in order to investigate” for “case,”, “inhibition of the autophosphorylation activity of IRAK1, the IRAK1” for “IRAK4”, “His6-IRAK1 (5.1” for “His6-IRAK4 (7.3”, “1” for “the biotinylated substrate peptide STK substrate 1-biotin (Cisbio Bioassays, France) (300 nM), 10”

[4] = target: T3, PDK1 (Homo sapiens, UniProt O15530); assay: Test for the inhibition of PDK1 (flashplate, 33P-ATP); assay type: biochemical; conditions: enzyme
T3 construct: His6 (N)
T3 sequence (O15530 51-556 limits assumed): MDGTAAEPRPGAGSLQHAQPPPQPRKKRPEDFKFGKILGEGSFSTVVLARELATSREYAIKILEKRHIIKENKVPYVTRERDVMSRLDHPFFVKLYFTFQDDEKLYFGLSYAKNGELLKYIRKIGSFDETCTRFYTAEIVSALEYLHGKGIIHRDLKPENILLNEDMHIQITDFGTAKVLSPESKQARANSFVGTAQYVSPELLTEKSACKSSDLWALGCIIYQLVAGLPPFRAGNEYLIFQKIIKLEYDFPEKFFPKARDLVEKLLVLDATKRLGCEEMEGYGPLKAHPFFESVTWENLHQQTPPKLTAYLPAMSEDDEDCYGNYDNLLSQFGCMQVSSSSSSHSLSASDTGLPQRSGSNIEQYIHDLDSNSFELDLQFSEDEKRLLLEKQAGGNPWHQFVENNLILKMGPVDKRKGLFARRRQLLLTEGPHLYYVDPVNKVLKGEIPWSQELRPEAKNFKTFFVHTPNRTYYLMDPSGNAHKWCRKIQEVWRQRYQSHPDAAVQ
Description: The experimental batches are carried out in a flashplate system with 384 wells/microtitration plate.
In each case, the PDK1 sample His6-PDK1(1-50)(3.4 nM), the PDK1 substrate biotin-bA-bA-[…] (400 nM), 4 μM ATP (with 0.2 μCi of ^33P-ATP/well) and the test substance in 50 μl of conventional experimental solution per well are incubated at 30° C. for 60 min. The test substances are employed in corresponding concentrations (if desired in a dilution series). The control is carried out without test substance. The reaction is stopped using standard methods and washed. The activity of the kinase is measured via the incorporated radioactivity in top count. In order to determine the non-specific kinase reaction (blank value), the experimental batches are carried out in the presence of 100 nM staurosporin.
The radioactivity (decompositions per minute) of the blank value (no use of test substance in the presence of staurosporin) is subtracted from all other radioactivity values. The controls (kinase activity without test substance) are set equal to 100 percent and all other radioactivity values (after subtracting the blank value) are expressed set in relation thereto (for example in % of the control).
IC50 values (50% inhibition) are determined with the aid of statistics programmes, such as, for example, RS1.

[5] = target: T4, PDK1 (Homo sapiens, UniProt O15530); assay: IC50 PDK1 (cell); assay type: cell-based
T4 construct: endogenous in cells; host or cells: commercially available colon carcinoma, ovary, prostate or breast cell lines (none named)
T4 sequence (O15530 1-556): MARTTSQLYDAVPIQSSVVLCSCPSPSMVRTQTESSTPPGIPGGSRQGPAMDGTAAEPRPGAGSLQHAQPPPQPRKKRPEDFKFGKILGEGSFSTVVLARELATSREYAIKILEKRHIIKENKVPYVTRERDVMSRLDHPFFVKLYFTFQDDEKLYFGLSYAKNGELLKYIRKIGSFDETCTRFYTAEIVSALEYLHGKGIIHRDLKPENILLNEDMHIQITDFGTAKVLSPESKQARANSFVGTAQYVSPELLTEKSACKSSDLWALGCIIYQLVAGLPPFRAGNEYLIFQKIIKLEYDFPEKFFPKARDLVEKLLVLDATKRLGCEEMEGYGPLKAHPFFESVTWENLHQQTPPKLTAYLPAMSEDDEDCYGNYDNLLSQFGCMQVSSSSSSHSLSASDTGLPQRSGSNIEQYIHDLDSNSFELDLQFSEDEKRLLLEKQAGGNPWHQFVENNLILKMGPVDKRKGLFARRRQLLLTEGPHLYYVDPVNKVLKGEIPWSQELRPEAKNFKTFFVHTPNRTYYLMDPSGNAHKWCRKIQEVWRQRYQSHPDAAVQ
Description: The cells are sown in a suitable cell density in microtitre plates (96-well format) and the test substances are added in the form of a concentration series. After four further days of cultivation in serum-containing medium, the tumour cell proliferation/tumour cell vitality can be determined by means of an Alamar Blue test system. A defined number of cells (for example 2000 cells) per culture/well in a volume of 180 μl of culture medium are sown in microtitre plates (96 well cell-culture plates) using a multichannel pipette. The cells are subsequently cultivated in a CO2 incubator (37° C. and 10% CO2). The test substances are dissolved, for example, in DMSO and subsequently employed in corresponding concentration (if desired in a dilution series) in the cell culture medium. The dilution steps can be adapted depending on the efficiency of the active ingredients and the desired spread of the concentrations. Cell culture medium is added to the test substances in corresponding concentrations. The addition of the test substances to the cells can take place on the same day as the sowing of the cells. To this end, in each case 20 μl of substance solution from the predilution plate are added to the cultures/wells. The cells are cultivated for a further 4 days at 37° Celsius and 10% CO2. In each case, 20 μl of Alamar Blue reagent are added per well, and the microtitre plates are incubated, for example, for a further seven hours in a CO2 incubator (at 37° C. and 10% CO2). The plates are measured in a reader with a fluorescence filter at a wavelength of 540 nm. The plates can be shaken gently immediately before the measurement. The absorbance value of the medium control (no cells and test substances used) is subtracted from all other absorbance values. The controls (cells without test substance) are set equal to 100 percent, and all other absorbance values are set in relation thereto (for example in % of control): Calculation: 100*(value with cells and test substance−value of medium control)/(value with cells−value of medium control) IC50 values (50% inhibition) are determined with the aid of statistics programs, such as, for example, RS1.

T2 sequence (P51617 whole entry, species assumed): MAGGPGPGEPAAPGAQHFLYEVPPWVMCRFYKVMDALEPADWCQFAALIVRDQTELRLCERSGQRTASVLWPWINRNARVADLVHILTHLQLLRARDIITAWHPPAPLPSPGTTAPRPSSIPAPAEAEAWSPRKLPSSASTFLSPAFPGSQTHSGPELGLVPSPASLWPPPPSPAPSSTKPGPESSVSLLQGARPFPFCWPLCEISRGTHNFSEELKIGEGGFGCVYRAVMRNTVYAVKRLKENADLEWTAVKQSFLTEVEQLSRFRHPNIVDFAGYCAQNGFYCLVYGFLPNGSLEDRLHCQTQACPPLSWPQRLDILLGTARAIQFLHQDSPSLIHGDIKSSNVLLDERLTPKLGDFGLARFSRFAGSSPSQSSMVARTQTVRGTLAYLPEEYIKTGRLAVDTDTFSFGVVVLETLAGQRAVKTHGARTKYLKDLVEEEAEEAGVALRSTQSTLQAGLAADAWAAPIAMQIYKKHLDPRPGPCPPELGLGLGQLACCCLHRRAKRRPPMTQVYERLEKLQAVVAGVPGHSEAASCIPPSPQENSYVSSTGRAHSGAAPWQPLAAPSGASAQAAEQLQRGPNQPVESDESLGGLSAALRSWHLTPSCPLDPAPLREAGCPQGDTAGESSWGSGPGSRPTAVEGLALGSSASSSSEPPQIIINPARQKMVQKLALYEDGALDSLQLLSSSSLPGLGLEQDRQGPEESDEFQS

Structure (SMILES) | IC50 [1] [µM] | IC50 [2] [µM] | IC50 [3] [µM] | IC50 [4] [µM] | IC50 [5] [µM]
CCCn1cc(-c2cnc(N)c(-c3nc4ccccc4[nH]3)c2)cn1 [Compound A44] | 0.1 to 10 | 0.1 to 10 | 0.1 to 10 |  | 
CC1CC(=O)NN=C1c1ccc2nc(-c3cc(-c4cnn(CCO)c4)cnc3N)[nH]c2c1 (stereo not shown) [Compound A29, 6-(2-{2-amino-5-[1-(2-hydroxyethyl)-1H-pyrazol-4-yl]pyridin-3-yl}-3H-benzimidazol-5-yl)-5-methyl-4,5-dihydro-2H-pyridazin-3-one] |  |  |  | 0.001 to 0.1 | > 10
COc1ccc2nc(-c3cc(-c4cnn(C(C)C)c4)cnc3N)[nH]c2c1 [Compound A107, 5-(1-Isopropyl-1H-pyrazol-4-yl)-3-(6-methoxy-1H-benzimidazol-2-yl)pyridin-2-ylamine] | 0.001 to 0.1 | 0.1 to 10 | 0.001 to 0.1 |  | 
CC1CC(=O)NN=C1c1ccc2[nH]c(-c3cc(-c4cnn(C5CCN(C)CC5)c4)cnc3N)nc2c1 (stereo not shown) [Compound A16] |  |  |  | 0.001 to 0.1 | > 10
COCCn1cc(-c2cnc(N)c(-c3nc4cc(C5=NNC(=O)CC5C)ccc4[nH]3)c2)cn1 (stereo not shown) [Compound A12] |  |  |  | 0.001 to 0.1 | 0.1 to 10
CC1CC(=O)NN=C1c1ccc2[nH]c(-c3cc(-c4cnn(CCN(C)C)c4)cnc3N)nc2c1 (stereo not shown) [Compound A15, 6-(2-{2-Amino-5-[1-(2-dimethylaminoethyl)-1H-pyrazol-4-yl]pyridin-3-yl}-1H-benzimidazol-5-yl)-5-methyl-4,5-dihydro-2H-pyridazin-3-one] |  |  |  | 0.001 to 0.1 | > 10
Nc1ncc(-c2cnn(C3CCNCC3)c2)cc1-c1nc2cc(OC(F)(F)F)ccc2[nH]1 [Compound A67] |  |  |  | 0.001 to 0.1 | 0.1 to 10
C[C@H]1CC(=O)NN=C1c1ccc2nc(-c3cc(-c4cnn(C)c4)cnc3N)[nH]c2c1 (single isomer, unassigned) [Compound A3] |  |  |  | 0.001 to 0.1 | > 10
COc1ccc2nc(-c3cc(-c4cnn(C5CCN(C)CC5)c4)cnc3N)[nH]c2c1 [Compound A106, 3-(6-Methoxy-1H-benzimidazol-2-yl)-5-[1-(1-methyl-piperidin-4-yl)-1H-pyrazol-4-yl]pyridin-2-ylamine] |  |  |  | 0.001 to 0.1 | > 10
CN(C)c1ccc2nc(-c3cc(-c4cnn(C)c4)cnc3N)[nH]c2c1 [Compound A68] |  |  |  | 0.001 to 0.1 | > 10
